Data: patent publication US20020160983A1, “Substituted benzopyranones as telomerase inhibitors” (priority 2001, published 2002)

Molecular target: telomerase enzyme (Homo sapiens, UniProt O14746)
Test: Flash Plate-based telomerase activity assay
Format: biochemical
Settings: two hours of incubation at 37°, biotinylated oligo primer, radioactive labeled probe
Protocol: The telomerase activity of the compounds has been evaluated using a Flash Plate-based assay.
Briefly the assay mixture is constituted of:
telomerase enzyme diluted in a buffer, the composition of which has been selected to maintain the enzyme activity stable along the duration of the assay.
dNTPs, deoxynucleotides 5′-triphosphate.
biotinylated oligo as primer.
increasing concentrations of test compounds/positive control.
After two hours of incubation at 37° degrees the telomeric repeats added by telomerase are evaluated by hybridization in solution with a 3′-radioactive labeled short oligonucleotide probe.
The extent of hybridization is then quantitated by transferring the reaction mixture in a streptavidin-coated flash plate, where the binding between biotin and streptavidin occurs.
The telomerase activity is proportional to the radioactivity measured and the inhibitory activity of the compounds is evaluated as IC50 using the Sigma Plot fit program.
With the above-described method IC50 values of the compounds of the present invention were determined.

telomerase enzyme, sequence (O14746 whole entry): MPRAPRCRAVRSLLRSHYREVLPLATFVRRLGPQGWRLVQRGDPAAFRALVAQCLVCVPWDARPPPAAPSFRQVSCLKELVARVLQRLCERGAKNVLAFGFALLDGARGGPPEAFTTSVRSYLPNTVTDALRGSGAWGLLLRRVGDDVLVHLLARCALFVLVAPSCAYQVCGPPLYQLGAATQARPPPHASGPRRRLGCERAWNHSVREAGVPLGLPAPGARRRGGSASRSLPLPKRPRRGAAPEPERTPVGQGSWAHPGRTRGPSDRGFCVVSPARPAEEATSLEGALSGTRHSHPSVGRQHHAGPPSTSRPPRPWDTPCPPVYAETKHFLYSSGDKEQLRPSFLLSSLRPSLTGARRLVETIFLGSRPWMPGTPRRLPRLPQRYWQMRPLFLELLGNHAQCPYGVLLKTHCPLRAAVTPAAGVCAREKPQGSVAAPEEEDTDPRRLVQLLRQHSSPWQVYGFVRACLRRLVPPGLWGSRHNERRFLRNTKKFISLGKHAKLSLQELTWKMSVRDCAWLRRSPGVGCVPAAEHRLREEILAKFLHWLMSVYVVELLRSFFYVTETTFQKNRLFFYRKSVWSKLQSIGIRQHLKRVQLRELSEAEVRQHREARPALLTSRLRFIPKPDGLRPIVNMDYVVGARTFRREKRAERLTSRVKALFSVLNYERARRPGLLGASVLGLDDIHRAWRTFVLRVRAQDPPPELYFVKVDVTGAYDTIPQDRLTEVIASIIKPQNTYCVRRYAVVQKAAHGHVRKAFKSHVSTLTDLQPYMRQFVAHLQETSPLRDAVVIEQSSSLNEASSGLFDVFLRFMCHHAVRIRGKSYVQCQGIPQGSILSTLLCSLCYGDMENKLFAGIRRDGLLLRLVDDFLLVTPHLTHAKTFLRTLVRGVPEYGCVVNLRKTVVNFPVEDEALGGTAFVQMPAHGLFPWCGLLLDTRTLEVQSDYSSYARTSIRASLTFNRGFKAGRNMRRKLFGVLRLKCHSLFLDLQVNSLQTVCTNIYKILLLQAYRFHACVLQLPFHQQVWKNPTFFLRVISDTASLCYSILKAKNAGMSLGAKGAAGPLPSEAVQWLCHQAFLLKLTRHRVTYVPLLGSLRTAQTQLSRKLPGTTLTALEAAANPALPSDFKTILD

Row | IC50 [µM] | SMILES
1 | 33 | O=c1cc(-c2ccccc2)oc2c(O)c(O)ccc12 [Compound 1, 7,8-dihydroxy-2-phenyl-4H-chromen-4-one]
2 | 3 | O=c1cc(-c2ccc(O)cc2)oc2c(O)c(O)ccc12 [Compound 2, 7,8-dihydroxy-2-(4-hydroxyphenyl)-4H-chromen-4-one]
3 | 0.3 | O=c1cc(-c2ccc(O)c(O)c2)oc2c(O)c(O)ccc12 [Compound 3, 2-(3,4-dihydroxyphenyl)-7,8-dihydroxy-4H-chromen-4-one]
4 | 25.3 | O=c1cc(-c2ccccc2O)oc2c(O)c(O)ccc12 [Compound 4, 7,8-dihydroxy-2-(2-hydroxyphenyl)-4H-chromen-4-one]
5 | 34 | O=c1cc(-c2cccc(O)c2)oc2c(O)c(O)ccc12 [Compound 5, 7,8-dihydroxy-2-(3-hydroxyphenyl)-4H-chromen-4-one]
6 | 12 | COc1ccc(-c2cc(=O)c3ccc(O)c(O)c3o2)cc1OC [Compound 7, 7,8-dihydroxy-2-(3,4-dimethoxyphenyl)-4H-chromen-4-one]
7 | > 40 | COc1ccc(-c2cc(=O)c3ccc(OC)c(OC)c3o2)cc1OC [Compound 24, 7,8-dimethoxy-2-(3,4-dimethoxyphenyl)-4H-chromen-4-one]
8 | 0.8 | O=c1c(Cl)c(-c2ccc(O)c(O)c2)oc2c(O)c(O)ccc12 [Compound 37, 3-chloro-2-(3,4-dihydroxyphenyl)-7,8-dihydroxy-4H-chromen-4-one]
9 | > 40 | COc1ccc(-c2oc3c(OC)c(OC)ccc3c(=O)c2Cl)cc1OC [Compound 38, 3-chloro-2-(3,4-dimethoxyphenyl)-7,8-dimethoxy-4H-chromen-4-one]
10 | 0.13 | N#Cc1c(-c2ccc(O)c(O)c2)oc2c(O)c(O)ccc2c1=O [Compound 39, 3-cyano-2-(3,4-dihydroxyphenyl)-7,8-dihydroxy-4H-chromen-4-one]
11 | 0.6 | O=c1c(F)c(-c2ccc(O)c(O)c2)oc2c(O)c(O)ccc12 [Compound 41, 3-fluoro-2-(3,4-dihydroxyphenyl)-7,8-dihydroxy-4H-chromen-4-one]
12 | 30 | O=c1cc(-c2cccc(Cl)c2)oc2c(O)c(O)ccc12 [Compound 45, 2-(3-chlorophenyl)-7,8-dihydroxy-4H-chromen-4-one]
13 | 14.3 | O=c1cc(-c2ccc(Cl)c(Cl)c2)oc2c(O)c(O)ccc12 [Compound 46, 2-(3,4-dichlorophenyl) -7,8-dihydroxy-4H-chromen-4-one]
14 | 0.34 | O=c1cc(-c2ccc(O)c(O)c2)oc2c(O)c(O)c(Cl)cc12 [Compound 49, 6-chloro-2-(3,4-dihydroxyphenyl)-7,8-dihydroxy-4H-chromen-4-one]
15 | 5.4 | COc1ccc(-c2cc(=O)c3cc(Cl)c(OC)c(OC)c3o2)cc1OC [Compound 50, 6-chloro-2-(3,4-dimethoxyphenyl)-7,8-dimethoxy-4H-chromen-4-one]
16 | 7.4 | COc1ccc2c(=O)cc(-c3ccc(N)c(N)c3)oc2c1OC [Compound 51, 2-(3,4-diaminophenyl)-7,8-dimethoxy-4H-chromen-4-one]
17 | 3.6 | Nc1ccc(-c2cc(=O)c3ccc(O)c(O)c3o2)cc1N [Compound 52, 2-(3,4-diaminophenyl)-7,8-dihydroxy-4H-chromen-4-one]
18 | > 40 | COc1ccc2c(=O)cc(-c3ccc(NC(C)=O)c(NC(C)=O)c3)oc2c1OC [Compound 58, N-[2-(acetylamino)-4-(7,8-dimethoxy-4-oxo-4H-chromen-2-yl)phenyl]acetamide]
19 | 2.2 | COc1ccc2c(=O)cc(-c3ccc4[nH]cnc4c3)oc2c1OC [Compound 61, 2-(1H-benzimidazol-5-yl)-7,8-dimethoxy-4H-chromen-4-one]
20 | > 40 | COc1ccc2c(=O)cc(-c3ccc4[nH]nnc4c3)oc2c1OC [Compound 65, 2-(1H-1,2,3-benzotriazol-5-yl)-7,8-dimethoxy-4H-chromen-4-one]
21 | 19 | COc1ccc2c(=O)cc(-c3ccc4[nH]c(=O)[nH]c4c3)oc2c1OC [Compound 67, 5-(7,8-dimethoxy-4-oxo-4H-chromen-2-yl)-1,3-dihydro-2H-benzimidazol-2-one]
22 | 7.8 | COc1ccc2c(=O)cc(-c3ccc(O)c(O)c3)oc2c1O [Compound 78, 8-hydroxy-7-methoxy-2-(3,4-dihydroxyphenyl)-4H-chromen-4-one]
23 | 11.7 | COc1ccc(-c2cc(=O)c3ccc(O)c(O)c3o2)cc1O [Compound 79, 7,8-dihydroxy-2-(3-hydroxy-4-methoxyphenyl)-4H-chromen-4-one]
24 | 8.7 | COc1ccc(-c2cc(=O)c3ccc(OC)c(OC)c3o2)cc1O [Compound 87, 7,8-dimethoxy-2-(3-hydroxy-4-methoxyphenyl)-4H-chromen-4-one]

Row | SMILES | IC50 [µM]
25 | CC(=O)Oc1ccc(-c2cc(=O)c3ccc(OC(C)=O)c(OC(C)=O)c3o2)cc1OC(C)=O [Compound 14, 2-(3,4-diacetoxyphenyl)-7,8-diacetoxy—4H-chromen-4-one] | 15
26 | CC(=O)Oc1ccc(-c2cc(=O)c3ccc(O)c(O)c3o2)cc1OC(C)=O [Compound 90, 2-(3,4-diacetoxyphenyl)-7,8-dihydroxy-4H-chromen-4-one] | 0.64
